Test results taken from ChEMBL document CHEMBL1201862, “PubChem BioAssay data set” (2004).
Active and inactive are the calls of the source.

Key:
Nonstructural protein 1 = Nonstructural protein 1 (Influenza A virus, UniProt Q194T2); type: functional, Influenza A virus (A/California/07/2009(H1N1))
[1] = molecular target: Matrix metalloproteinase-14 (Homo sapiens, UniProt P50281); experiment: Dose Response confirmation of uHTS hits for a small molecule inhibitors of MT1-MMP activation in a fluorescence assay set 1.; type: functional
[2] = human group III sPLA2 inhibitors, dose response, biochemical, QFRET, IC50 (AID 743457);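 also: green fluorescence rise as the enzyme cleaves BODIPY PC-A2 in liposomes; potency for inhibition of the enzyme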
[3] = HEK293T cytotoxicity, dose response, cytotoxicity control for miR-122 modulator project, cell-based, inhibitor set, cherry-pick, set 2 (AID 720697); type: functional
Beta-galactosidase = Beta-galactosidase (Escherichia coli, UniProt Q8VNN2); experiment: Dose response counterscreen for EBI2 assay utilizing the enzyme, b-galactosidase.; type: functional
Aminopeptidase N = molecular target: T1, Aminopeptidase N (Plasmodium falciparum FcB1/Columbia, UniProt O96935); experiment: P. falciparum M1AAP inhibitors, biochemical, fluorogenic H-Leu-NHMec substrate, 1536-well (AID 1445); set-up: species or system Plasmodium falciparum 3D7, 3D7
T1 sequence (O96935 whole entry): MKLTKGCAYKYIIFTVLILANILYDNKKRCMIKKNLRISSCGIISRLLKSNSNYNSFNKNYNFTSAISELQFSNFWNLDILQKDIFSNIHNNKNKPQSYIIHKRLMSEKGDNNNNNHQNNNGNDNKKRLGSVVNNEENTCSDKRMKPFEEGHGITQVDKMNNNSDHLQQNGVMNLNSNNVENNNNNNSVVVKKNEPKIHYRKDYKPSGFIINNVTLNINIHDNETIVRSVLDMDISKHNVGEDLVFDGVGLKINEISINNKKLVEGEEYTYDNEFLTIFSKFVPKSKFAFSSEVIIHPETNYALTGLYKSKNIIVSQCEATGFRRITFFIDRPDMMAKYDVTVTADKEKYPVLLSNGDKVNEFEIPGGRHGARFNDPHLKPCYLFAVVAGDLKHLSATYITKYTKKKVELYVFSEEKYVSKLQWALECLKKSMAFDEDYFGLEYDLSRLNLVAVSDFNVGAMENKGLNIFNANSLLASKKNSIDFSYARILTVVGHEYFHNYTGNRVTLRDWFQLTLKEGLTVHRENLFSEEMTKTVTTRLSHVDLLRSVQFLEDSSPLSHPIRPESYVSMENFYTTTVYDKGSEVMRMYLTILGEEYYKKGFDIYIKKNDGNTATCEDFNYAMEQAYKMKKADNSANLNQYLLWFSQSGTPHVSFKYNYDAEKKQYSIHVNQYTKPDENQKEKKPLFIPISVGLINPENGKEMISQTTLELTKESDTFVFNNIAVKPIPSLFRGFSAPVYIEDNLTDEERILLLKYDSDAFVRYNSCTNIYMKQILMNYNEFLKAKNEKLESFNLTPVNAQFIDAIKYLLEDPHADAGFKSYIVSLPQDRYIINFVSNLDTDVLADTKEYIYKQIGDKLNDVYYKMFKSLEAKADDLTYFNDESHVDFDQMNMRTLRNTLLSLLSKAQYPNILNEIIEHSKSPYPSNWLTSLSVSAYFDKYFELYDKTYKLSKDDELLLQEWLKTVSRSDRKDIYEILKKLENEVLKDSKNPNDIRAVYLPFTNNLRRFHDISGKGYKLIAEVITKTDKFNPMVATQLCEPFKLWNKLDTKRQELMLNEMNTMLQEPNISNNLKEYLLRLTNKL

[4] = molecular target: T2, Heat shock factor protein 1 (Mus musculus, UniProt P38532); experiment: inhibition of MG132-induced HSE-luciferase signal, confirmation, cell-based, NIH3T3, luminescence, dose retest (AID 2382); type: functional;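 also: NIH3T3 fibroblasts with HSF1-driven luciferase reporter stressed by proteasome inhibitor MG132; luminescence from HSF1-driven luciferase expression after 8 hours of MG132 stress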
T2 sequence (P38532 whole entry): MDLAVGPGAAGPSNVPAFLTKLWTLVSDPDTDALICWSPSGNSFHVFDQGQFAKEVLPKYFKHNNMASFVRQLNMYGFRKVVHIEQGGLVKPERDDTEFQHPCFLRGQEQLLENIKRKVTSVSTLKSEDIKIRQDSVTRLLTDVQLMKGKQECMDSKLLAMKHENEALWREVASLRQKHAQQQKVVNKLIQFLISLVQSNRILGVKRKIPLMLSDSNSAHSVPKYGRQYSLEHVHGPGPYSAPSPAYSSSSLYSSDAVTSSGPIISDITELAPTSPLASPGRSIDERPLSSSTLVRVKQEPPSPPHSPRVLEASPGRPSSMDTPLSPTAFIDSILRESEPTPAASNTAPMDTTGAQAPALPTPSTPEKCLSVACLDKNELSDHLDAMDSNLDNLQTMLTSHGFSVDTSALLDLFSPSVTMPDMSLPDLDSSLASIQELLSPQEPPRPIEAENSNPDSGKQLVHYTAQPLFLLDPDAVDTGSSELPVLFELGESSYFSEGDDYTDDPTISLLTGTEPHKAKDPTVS

[5] = molecular target: Long-chain-fatty-acid--AMP ligase FadD28 (Mycobacterium tuberculosis, UniProt P9WQ59); experiment: Fluorescence polarization aasay to screen for inhibitors that compete for the binding of FadD28 to a bisubstrate Measured in Biochemical System Using Plate Reader - 2147-01_Inhibitor_Dose_CherryPick_Activity.; type: functional, Mycobacterium tuberculosis H37Rv
[6] = molecular target: T3, Methionyl-tRNA synthetase, putative (Trypanosoma brucei brucei, UniProt Q38C91); type: functional, Trypanosoma brucei brucei strain 927/4 GUTat10.1
[7] = molecular target: T3, Methionyl-tRNA synthetase, putative; type: functional, Trypanosoma brucei brucei strain 927/4 GUTat10.1; remark: listed apart in the source
[8] = molecular target: Fructose-bisphosphate aldolase (Mycobacterium tuberculosis, UniProt P9WQA3); experiment: Fluorescence-based biochemical high throughput dose response assay for inhibitors of the fructose-bisphosphate aldolase (FBA) of M. tuberculosis.; type: functional
Fructose-bisphosphate aldolase, sequence (P9WQA3 whole entry): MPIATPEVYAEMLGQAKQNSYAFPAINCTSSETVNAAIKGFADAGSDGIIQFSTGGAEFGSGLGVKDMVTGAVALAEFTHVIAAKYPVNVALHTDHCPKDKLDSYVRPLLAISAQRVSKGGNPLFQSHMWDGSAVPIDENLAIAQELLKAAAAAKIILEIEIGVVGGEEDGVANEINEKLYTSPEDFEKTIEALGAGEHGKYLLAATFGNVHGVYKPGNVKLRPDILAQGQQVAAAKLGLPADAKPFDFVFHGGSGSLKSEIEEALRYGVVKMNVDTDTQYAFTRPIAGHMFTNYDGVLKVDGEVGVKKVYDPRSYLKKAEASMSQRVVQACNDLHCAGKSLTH

T3 sequence (Q38C91 whole entry): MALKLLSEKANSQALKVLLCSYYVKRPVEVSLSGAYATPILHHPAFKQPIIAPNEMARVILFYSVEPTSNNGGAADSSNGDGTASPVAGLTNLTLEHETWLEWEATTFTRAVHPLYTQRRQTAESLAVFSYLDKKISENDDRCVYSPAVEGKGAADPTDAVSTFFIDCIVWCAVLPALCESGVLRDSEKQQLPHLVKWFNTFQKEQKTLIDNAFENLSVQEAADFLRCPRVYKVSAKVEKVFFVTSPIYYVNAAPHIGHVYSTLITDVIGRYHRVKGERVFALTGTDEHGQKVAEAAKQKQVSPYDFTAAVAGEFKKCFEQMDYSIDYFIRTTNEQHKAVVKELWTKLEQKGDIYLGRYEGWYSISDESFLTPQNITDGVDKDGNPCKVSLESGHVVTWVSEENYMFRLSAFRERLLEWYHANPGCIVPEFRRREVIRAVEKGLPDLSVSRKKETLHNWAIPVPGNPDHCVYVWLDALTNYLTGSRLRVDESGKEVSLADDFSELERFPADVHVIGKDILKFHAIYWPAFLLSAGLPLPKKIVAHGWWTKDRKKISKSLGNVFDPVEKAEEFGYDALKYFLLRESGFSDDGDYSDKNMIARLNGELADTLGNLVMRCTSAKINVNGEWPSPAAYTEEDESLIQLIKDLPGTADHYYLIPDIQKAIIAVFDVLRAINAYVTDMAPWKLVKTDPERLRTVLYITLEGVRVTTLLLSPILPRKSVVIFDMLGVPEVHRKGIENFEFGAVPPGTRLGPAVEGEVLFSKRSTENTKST
Nonstructural protein 1, sequence (Q194T2 whole entry): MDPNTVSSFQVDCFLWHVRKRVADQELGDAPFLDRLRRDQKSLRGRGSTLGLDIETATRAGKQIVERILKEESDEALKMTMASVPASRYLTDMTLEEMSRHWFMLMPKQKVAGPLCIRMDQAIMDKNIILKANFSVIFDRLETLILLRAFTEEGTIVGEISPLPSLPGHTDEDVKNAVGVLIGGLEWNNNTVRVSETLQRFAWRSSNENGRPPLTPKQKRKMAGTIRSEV
Beta-galactosidase, sequence (Q8VNN2 whole entry): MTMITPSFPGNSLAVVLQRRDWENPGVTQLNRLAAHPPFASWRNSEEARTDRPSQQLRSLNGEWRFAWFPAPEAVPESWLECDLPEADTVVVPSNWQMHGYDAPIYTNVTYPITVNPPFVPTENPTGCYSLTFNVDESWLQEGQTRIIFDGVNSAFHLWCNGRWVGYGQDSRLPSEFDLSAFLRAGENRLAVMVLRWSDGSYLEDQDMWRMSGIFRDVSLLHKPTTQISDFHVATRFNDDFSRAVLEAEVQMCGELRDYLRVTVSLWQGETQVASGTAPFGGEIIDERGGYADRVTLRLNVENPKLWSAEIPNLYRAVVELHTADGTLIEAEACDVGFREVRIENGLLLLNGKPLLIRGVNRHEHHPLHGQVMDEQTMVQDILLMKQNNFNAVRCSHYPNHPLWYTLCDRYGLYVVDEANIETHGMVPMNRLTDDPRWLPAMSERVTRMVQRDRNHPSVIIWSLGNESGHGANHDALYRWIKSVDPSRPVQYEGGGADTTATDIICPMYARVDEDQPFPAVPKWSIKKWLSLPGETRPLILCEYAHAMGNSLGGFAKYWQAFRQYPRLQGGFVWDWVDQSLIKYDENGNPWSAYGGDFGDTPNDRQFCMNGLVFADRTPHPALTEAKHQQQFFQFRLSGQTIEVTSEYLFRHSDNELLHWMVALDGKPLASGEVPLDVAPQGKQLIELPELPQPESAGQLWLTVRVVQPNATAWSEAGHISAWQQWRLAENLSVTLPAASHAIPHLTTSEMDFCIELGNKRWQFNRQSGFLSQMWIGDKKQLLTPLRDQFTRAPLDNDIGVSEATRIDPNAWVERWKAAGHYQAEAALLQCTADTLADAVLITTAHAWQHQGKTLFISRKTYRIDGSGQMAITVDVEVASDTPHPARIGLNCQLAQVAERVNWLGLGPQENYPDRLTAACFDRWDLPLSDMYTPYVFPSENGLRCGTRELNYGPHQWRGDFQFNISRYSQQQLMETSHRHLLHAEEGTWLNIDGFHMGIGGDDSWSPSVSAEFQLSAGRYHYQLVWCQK
Long-chain-fatty-acid--AMP ligase FadD28, sequence (P9WQ59 whole entry): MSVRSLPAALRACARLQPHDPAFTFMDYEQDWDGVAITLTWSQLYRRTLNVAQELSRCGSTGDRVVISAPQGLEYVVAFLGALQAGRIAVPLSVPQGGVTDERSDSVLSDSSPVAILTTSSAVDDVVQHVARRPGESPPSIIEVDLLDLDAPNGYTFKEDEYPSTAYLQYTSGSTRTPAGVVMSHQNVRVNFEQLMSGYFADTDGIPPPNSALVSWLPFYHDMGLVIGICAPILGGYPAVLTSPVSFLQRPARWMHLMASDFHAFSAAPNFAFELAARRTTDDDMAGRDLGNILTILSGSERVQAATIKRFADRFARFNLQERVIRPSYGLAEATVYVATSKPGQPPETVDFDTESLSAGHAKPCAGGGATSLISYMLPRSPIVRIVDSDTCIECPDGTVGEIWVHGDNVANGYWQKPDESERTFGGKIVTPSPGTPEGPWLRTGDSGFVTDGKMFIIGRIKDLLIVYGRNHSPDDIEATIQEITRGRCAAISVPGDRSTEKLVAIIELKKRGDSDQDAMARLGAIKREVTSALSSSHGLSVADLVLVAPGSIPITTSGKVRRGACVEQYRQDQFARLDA

## CC1(C)CCCN(C(=O)c2ccc3c(c2NCCO)C(=O)c2ccccc2C3=O)C1
Nonstructural protein 1
  IC50: 15.2 µM (active)
[1]
  IC50: 17.2 µM (active)
[2]
  IC50: > 122 µM (inactive)

## CCN(CC)CCOc1cccc(C(C)C)c1
[3]
  AC50: 6.91 µM (active)

## CCOC(=O)C1CCN(C(=O)c2cc3c(s2)-c2ccccc2OC3)CC1
Beta-galactosidase
  IC50: > 80 µM (inactive)

## CCOc1ccc(N2C(=O)/C(=C\NNc3nnc(C)c(O)n3)c3ccccc3C2=O)cc1
Aminopeptidase N
  IC50: 20.9 µM (active)
[4]
  EC50: > 195 µM (not active)
Nonstructural protein 1
  IC50: 5.02 µM (active)
[5]
  AC50: 64.9 µM (active)

## COc1ccc(NC(=S)N2CCC(c3nc4ccc(Cl)cc4[nH]3)CC2)c(OC)c1
[4]
  EC50: > 195 µM (not active)
[6]
  IC50: 53.5 µM (inactive)
[7]
  IC50: 26.1 µM (inactive)

## CN1CCN(C(=O)COc2ccc(-c3nc4ccccc4s3)cc2)CC1
[8]
  IC50: 3.57 µM (active)
